Reference: patent publication US12564597B2 (priority 2020, dated 2026)

Legend:
in vitro = conditions: for Percentage turnover of test compounds (percent remaining): 10 μM, +NADPH
Protocol: (§1) Metabolism Studies. Metabolic stability of test compounds was evaluated in liver microsomes from rat (RLM) and human (HLM). This was accomplished by incubating test compounds with microsomes and monitoring disappearance of parent compound as well as metabolite formation over time using LC-MS/MS in Multiple Reaction Monitoring mode (MRM).
(§2) Stock solutions of test compounds were prepared in DMSO at a concentration of 10 mM.
(§3) Total Incubation volume: 100 μL
(§4) Compound concentration: 10 μM
(§5) Protein Concentration: 0.5 mg/mL (0.25 mg/mL for positive controls)
(§6) From the above mix, 70 PL was added to individual wells of 96 well reaction plates and pre-incubated at 37° C. for 5 min. […] Reactions without NADPH and buffer controls (minus NADPH) at 0 min and 60 min were also incubated to rule out non-NADPH metabolism or chemical instability in the incubation buffer. All reactions were terminated using 100 μL of ice-cold acetonitrile containing internal standard (glipizide) at 0, 5, 15, 30 and 60 min.
(§7) Stock solution of noribogaine was prepared in DMSO at a concentration of 20 mM and serially diluted in DMSO to prepare 10, 3, 1, 0.3, 0.1 and 0.03 mM solutions respectively.
(§8) Samples were monitored for parent compounds disappearance and formation of metabolite in MRM mode using LC-MS/MS instrument (API-4000 with Waters UPLC).
(§9) The percent remaining of test compounds and positive control in each sample was determined by considering peak area ratio in the 0 minute sample as 100%.
(§10) In vitro intrinsic clearance (CL′int) (units in mL/min/kg) was calculated using the formula: […]
(§11) For human, monkey, dog, rat and mouse the liver weight are 20 gm, 32 gm, 32 gm, 40 gm and 90 gm respectively.

[1] = Metabolic stability and noribogaine formation in rat liver microsomes (RLM); conditions: for Percentage turnover of test compounds (percent remaining): 10 μM, +NADPH
Protocol: as §1, §2, §3, §4, §5, §6, §7, §8, §9, §10, §11

[2] = Buffer control for chemical instability in the incubation buffer; format: physicochemical; conditions: Kphos buffer pH 7.4, 37° C., no microsomes, minus NADPH
[3] = Plasma pharmacokinetics and brain distribution in male Wistar rats after a single intraperitoneal dose
Protocol: Formulation strengths for intraperitoneal administration was 4 mg/mL. A weighed quantity of compound was combined with an appropriate volume of vehicle (10% ethanol and 90% normal saline), the mixture was warmed to 55° C. and vortexed until a clear yellowish solution was obtained. The dosing volume administered was 10 mL/kg for intraperitoneal route.
Healthy male Wistar rats (8-12 weeks old) weighing between 280 to 300 g were procured from Global, India. Three rats were housed in each cage. […] Temperature and humidity were recorded by auto-controlled data logger system. All the animals were provided laboratory rodent diet (Envigo Research private Ltd, Hyderabad). Reverse osmosis water treated with ultraviolet light was provided ad libitum.
Blood samples (approximately 120 μL) were collected under light isoflurane anesthesia from retro orbital plexus from a set of three rats at specified time intervals. Samples were collected into labeled micro-tubes, containing K2EDTA solution (10 μL of 20% K2EDTA of solution per mL of blood) as an anticoagulant. Plasma was immediately harvested from the blood by centrifugation at 4000 rpm for 10 min at 4±2° C. and stored below −70±10° C. until bioanalysis.
Immediately, after blood collection animals were euthanized with excess CO2 and brain was isolated at each time point. Brain was rinsed three times in ice cold PBS (for 5-10 seconds/rinse using ˜5-10 mL fresh PBS in disposable petri dish for each rinse) and dried on blotting paper. Brain samples were homogenized using ice-cold phosphate buffer saline (pH 7.4) and homogenates were stored below −70±10° C. until analysis. Total homogenate volume was three times the tissue weight.
The extraction procedure for plasma and brain samples and the spiked plasma and brain calibration standards were identical: A 25 PL of study sample or spiked plasma and brain calibration standard was added to individual pre-labeled micro-centrifuge tubes followed by 100 PL of internal standard prepared in Acetonitrile (Glipizide, 500 ng/mL) was added except for blank, where 100 μL of Acetonitrile was added. Samples were vortexed for 5 minutes and then centrifuged for 10 minutes at a speed of 4000 rpm at 4° C. Following centrifugation, 100 μL of clear supernatant was transferred to a 96 well plate and analyzed using LC-MS/MS.
Non-compartmental analysis tool of Phoenix WinNonlin® (Version 7.0) was used to assess the pharmacokinetic parameters. Peak plasma concentrations (Cmax) and time for the peak plasma concentrations (Tmax) were the observed values. The areas under the concentration time curve (AUClast and AUCinf) were calculated by linear trapezoidal rule. The terminal elimination rate constant, ke was determined by regression analysis of the linear terminal portion of the log plasma concentration-time curve.

[4] = 0.08 h after CD3O-ibogamine 40 mg/kg i.p.
[5] = 0.5 h after CD3O-ibogamine 40 mg/kg i.p.
[6] = 1 h after CD3O-ibogamine 40 mg/kg i.p.
[7] = 2 h after CD3O-ibogamine 40 mg/kg i.p.
[8] = 3 h after CD3O-ibogamine 40 mg/kg i.p.
[9] = male, Wistar, rat, in vivo, ip, 40 mg/kg, brain, analyte after CD3O-ibogamine 40 mg/kg i.p.
[10] = male, Wistar, rat, in vivo, ip, 40 mg/kg, plasma, analyte after CD3O-ibogamine 40 mg/kg i.p.

[2H]C([2H])([2H])Oc1ccc2[nH]c3c(c2c1)CCN1C[C@H]2C[C@H](CC)C1[C@H]3C2 [CD3O-ibogamine]
CLh, int (in vitro; HLM): 42 mL/min/kg
metabolic degradation, times faster compared to that of ibogaine (in vitro; HLM): more than 2 ×
Percentage turnover of test compounds (percent remaining) (in vitro; HLM, 0 min): 100%
Percentage turnover of test compounds (percent remaining) (in vitro; HLM, 5 min): 98%
Percentage turnover of test compounds (percent remaining) (in vitro; HLM, 15 min): 83%
Percentage turnover of test compounds (percent remaining) (in vitro; HLM, 30 min): 67%
Percentage turnover of test compounds (percent remaining) (in vitro; HLM, 60 min): 25%
% Remaining at 60 min (+NADPH) (in vitro; HLM, summary): 25%
% Remaining at 60 min (−NADPH) (in vitro; HLM, without NADPH): 105%
half-life (in vitro; human, microsomes, pH 7.4): 30 min
CLh, int ([1]; RLM): 742 mL/min/kg
t1/2 ([1]; RLM): <5 min
Percentage turnover of test compounds (percent remaining) ([1]; RLM, 0 min): 100%
Percentage turnover of test compounds (percent remaining) ([1]; RLM, 5 min): 36%
Percentage turnover of test compounds (percent remaining) ([1]; RLM, 15 min): 0%
Percentage turnover of test compounds (percent remaining) ([1]; RLM, 30 min): 1%
Percentage turnover of test compounds (percent remaining) ([1]; RLM, 60 min): 0%
% Remaining at 60 min (+NADPH) ([1]; RLM, summary): 0%
% Remaining at 60 min (−NADPH) ([1]; RLM, without NADPH): 105%
metabolism compared to ibogaine in the in vitro study ([1]; in vitro microsome study): metabolized faster than ibogaine
half-life at 10 μM ([1]; male, rat, microsomes, pH 7.4): < 5 min
total amount of noribogaine produced compared to ibogaine ([1]; short incubation period (~5 min)): comparable
% Remaining at 60 min (Buffer) [2]: 90%
Mean brain concentration [3, 4]: 11340 ng/g
Mean plasma concentration [3, 4]: 1229 ng/mL
Mean brain concentration [3, 5]: 6647 ng/g
Mean plasma concentration [3, 5]: 698 ng/mL
Mean brain concentration [3, 6]: 5363 ng/g
Mean plasma concentration [3, 6]: 620 ng/mL
Mean brain concentration [3, 7]: 3941 ng/g
Mean plasma concentration [3, 7]: 343 ng/mL
Mean brain concentration [3, 8]: 4684 ng/g
Mean plasma concentration [3, 8]: 473 ng/mL
AUClast ([3]; brain, analyte after CD3O-ibogamine 40 mg/kg i.p.): 16357.31 ng·h/g
AUC(0-t) ([3]; male, Wistar, rat, in vivo, ip, 40 mg/kg, AUClast, plasma, analyte after CD3O-ibogamine 40 mg/kg i.p.): 1700 ng·h/mL
Cmax [3, 9]: 11300 ng/g
Cmax [3, 10]: 1230 ng/mL
Tmax [3, 9]: 4.8 min
Tmax [3, 10]: 4.8 min
difference of plasma concentration versus ibogaine (lower for CD3O-ibogamine) ([3]; single i.p. dose 40 mg/kg): approximately 25%
maximum brain concentration as percent of the ibogaine concentration detected after its administration ([3]; single i.p. dose 40 mg/kg): ~43%
